According to ChEMBL document CHEMBL5346962, “Discovery of Sulanemadlin (ALRN-6924), the First Cell-Permeating, Stabilized α-Helical Peptide in Clinical Development” (J Med Chem, 2023):
Activity calls are given as the source filed them. The calls are words filed in the database; no cut-off is given here.

Key:
[1] = Induction of cell cycle arrest in human CD34+ cells assessed as accumulation at S phase at 0.1 uM incubated for 24 hrs by flow cytometry (reference value: 27.5 +/- 5.8%); format: toxicity, cell-based; conditions: cd34-positive (myeloid/lymphoid) cell
[2] = Induction of cell cycle arrest in human CD34+ cells assessed as accumulation at S phase at 2.5 uM incubated for 24 hrs by flow cytometry (reference value: 27.5 +/- 5.8%); format: toxicity, cell-based; conditions: cd34-positive (myeloid/lymphoid) cell
[3] = Induction of cell cycle arrest in human CD34+ cells assessed as accumulation at S phase at 5 uM incubated for 24 hrs by flow cytometry (reference value: 27.5 +/- 5.8%); format: toxicity, cell-based; conditions: cd34-positive (myeloid/lymphoid) cell
[4] = Induction of cell cycle arrest in human CD34+ cells at 1 uM incubated for 24 hrs followed by compound wash-out and addition of fresh-medium containing compounds measured after 24 hrs by flow cytometry; format: toxicity, cell-based; conditions: cd34-positive (myeloid/lymphoid) cell, 48 h
[5] = test system: Fibroblast; assay: Protection against chemotherapy-induced apoptosis in human fibroblast assessed as decrease in caspase-3/7 level preincubated for 16 hrs followed by SN-38 addition measured after 32 hrs; format: functional, cell-based; conditions: dose 4.6-10 µM, time 48.0 hrs
[6] = test system: Fibroblast; assay: Protection against chemotherapy-induced apoptosis in human fibroblast assessed as decrease in caspase-3/7 level preincubated for 16 hrs followed by vinblastine addition measured after 32 hrs; format: functional, cell-based; conditions: dose 4.6-10 µM, time 48.0 hrs
[7] = test system: Fibroblast; assay: Protection against chemotherapy-induced apoptosis in human fibroblast assessed as decrease in caspase-3/7 level preincubated for 16 hrs followed by gemcitabine.HCl addition measured after 32 hrs; format: functional, cell-based; conditions: dose 4.6-10 µM, time 48.0 hrs
[8] = test system: BT-474; assay: […] chemotherapy-induced apoptosis in human BT-474 cells assessed as decrease in caspase-3/7 level at 4.6 to 10 uM preincubated for 16 hrs followed by docetaxel addition measured after 32 hrs; format: functional, cell-based; conditions: dose 4.6-10 µM, time 48.0 hrs
[9] = test system: MCF7; assay: Antitumor activity against human MCF7 cells xenografted in athymic nu/nu mouse […] assessed as tumor growth inhibition administered intravenously twice a week measured for 30 days; format: functional, cell-based; conditions: dose 5-20 mg/kg, route iv, time 30.0 day
[10] = test system: CTG-0449; assay: Antitumor activity against patient-derived human CTG-0449 cells xenografted in athymic nu/nu mouse model of AML assessed as tumor growth inhibition administered intravenously twice a week measured for 20 days; format: functional, cell-based; conditions: dose 10-20 mg/kg, route iv, time 20.0 day
[11] = test system: MV4-11; assay: Antitumor activity against human MV4-11 cells xenografted in athymic nu/nu mouse model of AML assessed as tumor growth inhibition; format: functional, cell-based
[12] = test system: MCF7; assay: Antitumor activity against human MCF7 cells xenografted in athymic nude BALB/c mouse assessed as upregulation of p21 protein level at 20 mg/kg, iv by immunohistochemical analysis; format: functional, organism-based; conditions: time <= 48.0 hrs, TDE = time-dependent effect
[13] = test system: MCF7; assay: Antitumor activity against human MCF7 cells xenografted in athymic nude BALB/c mouse assessed as increase in cPARP protein level at 20 mg/kg, iv by immunohistochemical analysis; format: functional, organism-based; conditions: time <= 48.0 hrs, TDE = time-dependent effect
[14] = test system: MCF7; assay: Antitumor activity against human MCF7 cells xenografted in athymic nude BALB/c mouse assessed as tumor regression at 20 mg/kg, iv measured upto 48 hrs by immunohistochemical analysis; format: functional, organism-based
[15] = test system: Bone marrow cell; assay: Protection against cell cycle arrest at S phase in bone marrow cells of C57BL/6 mouse at 10 mg/kg, iv measured for 8 hrs by FACS analysis; format: functional, organism-based
[16] = test system: Bone marrow cell; assay: Upregulation of p21 mRNA level in bone marrow cells of C57BL/6 mouse at 2.4 mg/kg, iv measured for 24 hrs by qRT-PCR analysis; format: functional, organism-based
[17] = test system: Mus musculus; assay: Protection against topotecan-induced neutropenia in C57BL/6 mouse assessed as increase in neutrophil level at 2.4 mg/kg administered on day 0 to 4 and co-administered 30 mins prior to topotecan on day 1 to 4 followed by topotecan administration on day 5 measured on day 7 by CBC analysis relative to control; format: functional; conditions: time 7 day
[18] = test system: Mus musculus; assay: Protection against topotecan-induced epithelium hyperplasia in gastrointestinal tract of C57BL/6 mouse at 2.4 mg/kg administered on day 0 to 4 and co-administered 30 mins prior to topotecan on day 1 to 4 followed by topotecan administration on day 5 measured on day 9 by H&E staining based analysis; format: functional, organism-based; conditions: time 9.0 day
[19] = test system: NCI-H69; assay: Antitumor activity against human NCI-H69 cells xenografted in athymic nu/nu mouse assessed as reduction in tumor volume at 8 mg/kg administered on day 0 to 4 and co-administered 30 mins prior to topotecan on day 1 to 4 followed by topotecan administration on day 5 measured for 60 days; format: functional, organism-based; conditions: time 60.0 day
[20] = test system: NCI-H211; assay: Antitumor activity against human NCI-H211 cells xenografted in athymic nu/nu mouse assessed as reduction in tumor volume at 8 mg/kg administered on day 0 to 4 and co-administered 30 mins prior to topotecan on day 1 to 4 followed by topotecan administration on day 5 measured for 90 days; format: functional, organism-based; conditions: time 90.0 day
[21] = AUC (all) in mouse at 5 mg/kg by LC-MS/MS analysis; format: ADME, organism-based; set-up: dose 5 mg/kg; conditions: in vivo
[22] = Cmax in rat at 2.5 mg/kg by LC-MS/MS analysis; format: ADME, organism-based; set-up: dose 2.5 mg/kg; conditions: in vivo
[23] = AUC (all) in rat at 2.5 mg/kg by LC-MS/MS analysis; format: ADME, organism-based; set-up: dose 2.5 mg/kg; conditions: in vivo
[24] = Half life in rat at 2.5 mg/kg by LC-MS/MS analysis; format: ADME, organism-based; conditions: in vivo
[25] = Clearance in rat at 2.5 mg/kg by LC-MS/MS analysis; format: ADME, organism-based; conditions: in vivo
[26] = Half life in rat at 5 mg/kg by LC-MS/MS analysis; format: ADME, organism-based; conditions: in vivo
[27] = Clearance in rat at 5 mg/kg by LC-MS/MS analysis; format: ADME, organism-based; conditions: in vivo
[28] = Cmax in rat at 10 mg/kg by LC-MS/MS analysis; format: ADME, organism-based; set-up: dose 10 mg/kg; conditions: in vivo
[29] = Half life in rat at 10 mg/kg by LC-MS/MS analysis; format: ADME, organism-based; conditions: in vivo
[30] = Clearance in rat at 10 mg/kg by LC-MS/MS analysis; format: ADME, organism-based; conditions: in vivo
[31] = Cmax in cynomolgous monkey at 5 mg/kg by LC-MS/MS analysis; format: ADME, organism-based, Macaca fascicularis; set-up: dose 5 mg/kg; conditions: cynomolgus monkey, in vivo
[32] = AUC (all) in cynomolgous monkey at 5 mg/kg by LC-MS/MS analysis; format: ADME, organism-based, Macaca fascicularis; set-up: dose 5 mg/kg; conditions: cynomolgus monkey, in vivo
[33] = Clearance in cynomolgous monkey at 5 mg/kg by LC-MS/MS analysis; format: ADME, organism-based, Macaca fascicularis; conditions: cynomolgus monkey, in vivo
[34] = Clearance in cynomolgous monkey at 10 mg/kg by LC-MS/MS analysis; format: ADME, organism-based, Macaca fascicularis; conditions: cynomolgus monkey, in vivo
[35] = Plasma protein binding in human at 2 to 50 uM; format: ADME, cell-free; conditions: dose 2-50 µM, read-out: PPB (converted)
[36] = Plasma protein binding in rat at 250 uM; format: ADME, cell-free; conditions: read-out: PPB (converted)
[37] = Plasma protein binding in human at 250 uM; format: ADME, cell-free; conditions: read-out: PPB (converted)
[38] = Plasma protein binding in human assessed as unbound fraction upto 150 uM; format: ADME, cell-free
[39] = Half life in plasma of athymic nu/nu mouse xenografted with human SJSA-1 cells at 25 mg/kg, iv measured for 24 hrs by LC-MS-MS analysis; format: ADME, organism-based
[40] = Drug uptake in tumor of athymic nu/nu mouse xenografted with human SJSA-1 cells assessed as half life of metabolite ALRN-8714 at 25 mg/kg, iv measured for 24 hrs by LC-MS-MS analysis; format: ADME, organism-based, Neoplasm; conditions: in vivo

`CC(=O)N[C@@H](CC(C)C)C(=O)N[C@H](C(=O)N[C@@H](Cc1ccccc1)C(=O)N[C@]1(C)CCCCCC/C=C/CCC[C@@](C)(C(=O)N[C@@H](C)C(=O)N[C@@H](C)C(=O)N[C@@H](C)C(=O)N[C@@H](C)C(=O)N[C@@H](C)C(=O)N[C@H](C)C(N)=O)NC(=O)[C@H](CC(C)C)NC(=O)[C@H](CCC(N)=O)NC(=O)[C@H](C)NC(=O)[C@H](Cc2c[nH]c3ccccc23)NC(=O)[C@H](Cc2ccc(O)cc2)NC(=O)[C@H](CCC(=O)O)NC1=O)[C@@H](C)O` gave an Activity [1] of 21.35%, an Activity [2] of 0.5% and an Activity [3] of 0.22%. The Activity [4] was “Non-Toxic”, the Activity [5] was “Dose-Dependent Effect” and the Activity [6] was “Dose-Dependent Effect”. The Activity [7] was “Dose-Dependent Effect”, the Activity [8] was “inactive” and the Activity [9] was “Dose-Dependent Effect”. The Activity [10] was “Dose-Dependent Effect”, the Activity [11] was “Dose-Dependent Effect” and the Activity [12] was “Tde”. For the same compound, the Activity [13] was “Tde”, the Activity [14] was “inactive” and the Activity [15] was “Active”. The Activity [16] was “Active”, the Activity [17] was 84% and the Activity [18] was “Active”. For the same compound, the Activity [19] was “Active”, the Activity [20] was “Active” and the AUC [21] was 450 µg·h/mL. The Cmax [22] was 49.9 µg/mL, the AUC [23] was 90.5 µg·h/mL and the half-life [24] was 1.4 h. For the same compound, the clearance [25] was 0.467 mL/min/kg, the half-life [26] was 2 h and the clearance [27] was 0.4 mL/min/kg. For the same compound, the Cmax [28] was 186 µg/mL, the half-life [29] was 3.8 h and the clearance [30] was 0.317 mL/min/kg. It also gave a Cmax [31] of 137 µg/mL, an AUC [32] of 914 µg·h/mL and a clearance [33] of 0.0983 mL/min/kg. It also gave a clearance [34] of 0.127 mL/min/kg, a fraction unbound at up to 50 µM [35] of 0.08 and a fraction unbound at 250 µM [36] of 0.02. For the same compound, the fraction unbound at 250 µM [37] was 0.19, the fraction unbound at up to 150 µM [38] was 0.03 and the half-life [39] was 2.8 h. It also gave a t1/2 [40] of 9 h.
